Experimental data as given in ChEMBL document CHEMBL3525933 (Drug Metab Dispos, 2012).

Assays:
[1] = tested on: Plasma; test: Drug uptake in conventional Wistar rat plasma at 400 mg/kg, po administered as single dose by HPLC-DAD analysis; format: ADME, organism-based; design: dose 400 mg/kg, route oral; settings: in vivo
[2] = tested on: Plasma; test: Drug uptake in streptozotocin-induced diabetic Wistar rat plasma at 400 mg/kg, po administered as single dose by HPLC-DAD analysis; format: ADME, organism-based; design: dose 400 mg/kg, route oral; settings: in vivo
[3] = AUC(0 to infinity) in conventional Wistar rat at 400 mg/kg, po administered as single dose by HPLC-DAD analysis; format: ADME, organism-based; design: time infinity, dose 400 mg/kg, route oral; settings: plasma
[4] = Cmax in conventional Wistar rat at 400 mg/kg, po administered as single dose by HPLC-DAD analysis; format: ADME, organism-based; design: dose 400 mg/kg, route oral; settings: in vivo
[5] = Apparent oral clearance in pseudo-germ free Wistar rat at 400 mg/kg, po administered as single dose by HPLC-DAD analysis; format: ADME, organism-based; design: dose 400 mg/kg, route oral; settings: in vivo
[6] = AUC(0 to t) in streptozotocin-induced diabetic Wistar rat at 400 mg/kg, po administered as single dose by HPLC-DAD analysis; format: ADME, organism-based; design: dose 400 mg/kg, route oral; settings: plasma
[7] = Drug excretion in conventional Wistar rat urine assessed as unchanged drug level at 400 mg/kg, po administered as single dose by HPLC-DAD analysis; format: ADME, organism-based; design: dose 400 mg/kg, route oral; settings: in vivo
[8] = Drug excretion in streptozotocin-induced diabetic Wistar rat urine assessed as 1,7-dihydroxyxanthone metabolite level at 400 mg/kg, po administered as single dose by HPLC-DAD analysis; format: ADME, organism-based; design: dose 400 mg/kg, route oral; settings: in vivo
[9] = tested on: Plasma; test: Drug metabolism in conventional Wistar rat plasma assessed as 1,7-dihydroxyxanthone metabolite formation at 400 mg/kg, po administered as single dose by HPLC-DAD analysis; format: ADME, organism-based; design: dose 400 mg/kg, route oral; settings: in vivo
[10] = MRT(0 to infinity) in pseudo-germ free Wistar rat at 400 mg/kg, po administered as single dose by HPLC-DAD analysis; format: ADME, organism-based; design: dose 400 mg/kg, route oral; settings: in vivo
[11] = AUC(0 to infinity) in pseudo-germ free Wistar rat at 400 mg/kg, po administered as single dose by HPLC-DAD analysis; format: ADME, organism-based; design: time infinity, dose 400 mg/kg, route oral; settings: plasma
[12] = Drug excretion in streptozotocin-induced diabetic Wistar rat feces assessed as 1,7-dihydroxyxanthone metabolite level at 400 mg/kg, po administered as single dose by HPLC-DAD analysis; format: ADME, organism-based; design: dose 400 mg/kg, route oral; settings: in vivo
[13] = Drug excretion in conventional Wistar rat urine assessed as norathyriol metabolite level at 400 mg/kg, po administered as single dose by HPLC-DAD analysis; format: ADME, organism-based; design: dose 400 mg/kg, route oral; settings: in vivo
[14] = Drug excretion in streptozotocin-induced diabetic Wistar rat urine assessed as norathyriol metabolite level at 400 mg/kg, po administered as single dose by HPLC-DAD analysis; format: ADME, organism-based; design: dose 400 mg/kg, route oral; settings: in vivo
[15] = Elimination half life in streptozotocin-induced diabetic Wistar rat at 400 mg/kg, po administered as single dose by HPLC-DAD analysis; format: ADME, organism-based; design: dose 400 mg/kg, route oral; settings: in vivo, read-out: beta t1/2 (converted)
[16] = Elimination half life in conventional Wistar rat at 400 mg/kg, po administered as single dose by HPLC-DAD analysis; format: ADME, organism-based; design: dose 400 mg/kg, route oral; settings: in vivo, read-out: beta t1/2 (converted)
[17] = Tmax in pseudo-germ free Wistar rat at 400 mg/kg, po administered as single dose by HPLC-DAD analysis; format: ADME, organism-based; design: dose 400 mg/kg, route oral; settings: in vivo
[18] = Cmax in streptozotocin-induced diabetic Wistar rat at 400 mg/kg, po administered as single dose by HPLC-DAD analysis; format: ADME, organism-based; design: dose 400 mg/kg, route oral; settings: in vivo
[19] = Drug excretion in conventional Wistar rat urine assessed as 1,7-dihydroxyxanthone metabolite level at 400 mg/kg, po administered as single dose by HPLC-DAD analysis; format: ADME, organism-based; design: dose 400 mg/kg, route oral; settings: in vivo
[20] = tested on: Plasma; test: Drug level in streptozotocin-induced diabetic Wistar rat plasma treated with mangiferin at 400 mg/kg, po administered as single dose by HPLC-DAD analysis; format: ADME, organism-based; design: dose 400 mg/kg, route oral; settings: in vivo
[21] = tested on: Plasma; test: Drug uptake in pseudo-germ free Wistar rat plasma at 400 mg/kg, po administered as single dose by HPLC-DAD analysis; format: ADME, organism-based; design: dose 400 mg/kg, route oral; settings: in vivo
[22] = Drug excretion in pseudo-germ free Wistar rat feces assessed as 1,7-dihydroxyxanthone metabolite level at 400 mg/kg, po administered as single dose by HPLC-DAD analysis; format: ADME, organism-based; design: dose 400 mg/kg, route oral; settings: in vivo
[23] = tested on: Plasma; test: Drug metabolism in streptozotocin-induced diabetic Wistar rat plasma assessed as norathyriol metabolite formation at 400 mg/kg, po administered as single dose by HPLC-DAD analysis; format: ADME, organism-based; design: dose 400 mg/kg, route oral; settings: in vivo
[24] = tested on: Plasma; test: Stability in Wistar rat plasma measured for 24 hrs at room temperature by HPLC-DAD analysis; format: ADME, cell-free
[25] = MRT(0 to infinity) in conventional Wistar rat at 400 mg/kg, po administered as single dose by HPLC-DAD analysis; format: ADME, organism-based; design: dose 400 mg/kg, route oral; settings: in vivo
[26] = tested on: Plasma; test: Drug recovery in Wistar rat plasma at 2000 ng/ml by HPLC-DAD analysis; format: ADME, cell-free
[27] = Drug excretion in pseudo-germ free Wistar rat urine assessed as unchanged drug level at 400 mg/kg, po administered as single dose by HPLC-DAD analysis; format: ADME, organism-based; design: dose 400 mg/kg, route oral; settings: in vivo
[28] = Drug excretion in pseudo-germ free Wistar rat urine assessed as 1,7-dihydroxyxanthone metabolite level at 400 mg/kg, po administered as single dose by HPLC-DAD analysis; format: ADME, organism-based; design: dose 400 mg/kg, route oral; settings: in vivo
[29] = Apparent oral clearance in conventional Wistar rat at 400 mg/kg, po administered as single dose by HPLC-DAD analysis; format: ADME, organism-based; design: dose 400 mg/kg, route oral; settings: in vivo

O=c1c2cc(O)c(O)cc2oc2cc(O)c([C@@H]3O[C@H](CO)[C@@H](O)[C@H](O)[C@H]3O)c(O)c12 [MANGIFERIN]
Drug uptake [1]: Active | Drug uptake [2]: Active | AUC(0-inf) [3]: 3820 ng·h/mL | Cmax [4]: 715 ng/mL | CL/F [5]: 1690 mL/min/kg | AUC(0-t) [6]: 8930 ng·h/mL | Drug excretion [7]: metabolite_detected | Drug excretion [8]: metabolite_detected | Drug metabolism [9]: metabolite_not_detected | MRT inf [10]: 7.52 h | AUC(0-inf) [11]: 4340 ng·h/mL | Drug excretion [12]: metabolite_not_detected | Drug excretion [13]: metabolite_detected | Drug excretion [14]: metabolite_detected | half-life [15]: 2.6 h | half-life [16]: 2.47 h | Tmax [17]: 2.89 h | Cmax [18]: 2000 ng/mL | Drug excretion [19]: metabolite_not_detected | Drug metabolism [20]: metabolite_detected | Drug uptake [21]: Active | Drug excretion [22]: metabolite_not_detected | Drug metabolism [23]: metabolite_not_detected | Stability [24]: Stable | MRT inf [25]: 7.77 h | Drug recovery [26]: 75.8% | Drug excretion [27]: metabolite_detected | Drug excretion [28]: metabolite_not_detected | CL/F [29]: 2030 mL/min/kg
